ChEMBL document CHEMBL4823303, “Discovery of Small Molecule Entry Inhibitors Targeting the Fusion Peptide of SARS-CoV-2 Spike Protein” (ACS Med Chem Lett, 2021)

tested on: SARS-CoV-2; assay: Antiviral activity against pseudovirus SARS-CoV-2 spike protein infected in HEK293 cells expressing ACE2 assessed as reduction in pseudotyped particle entry incubated for 48 hrs incubation by luminescence assay; assay type: functional, organism-based; settings: Severe acute respiratory syndrome coronavirus 2, HEK293, 48 h; call rule not given here

SMILES | IC50
CC(Nc1nc(N2CCOCC2)nc2ccccc12)c1ccccc1 (configuration not stated) | 22.4 µM
C[C@H](Nc1nc(N2CCNCC2)nc2ccccc12)c1ccccc1 | 15.8 µM
CC(Nc1nc(N2CCC(=O)CC2)nc2ccccc12)c1ccccc1 (configuration not stated) | 31.6 µM
CC(Nc1nc(N2CCNCC2)nc2ccccc12)c1c(F)cccc1F (configuration not stated) | 22.4 µM
CC(Nc1nc(N2CCNCC2)nc2cc(Br)ccc12)c1ccccc1 (configuration not stated) | 8.91 µM
CC(Nc1nc(N2CCNCC2)nc2ccc(F)cc12)c1ccccc1 (configuration not stated) | 15.8 µM
CC(Nc1nc(N2CCNCC2)nc2cc(-c3ccccc3)ccc12)c1ccccc1 (configuration not stated) | 12.6 µM
CC(Nc1nc(N2CCNCC2)nc2ccc(-c3ccccc3)cc12)c1ccccc1 (configuration not stated) | 15.8 µM

tested on: SARS-CoV-2; assay: Antiviral activity against pseudovirus SARS-CoV-2 spike protein infected in HEK293 cells expressing ACE2 assessed as reduction in pseudotyped particle entry incubated for 48 hrs incubation by luminescence assay relative to control; assay type: functional, Severe acute respiratory syndrome coronavirus 2; settings: not given

SMILES | Efficacy
CC(Nc1nc(N2CCOCC2)nc2ccccc12)c1ccccc1 (configuration not stated) | 94.1%
C[C@H](Nc1nc(N2CCNCC2)nc2ccccc12)c1ccccc1 | 94.3%
CC(Nc1nc(N2CCC(=O)CC2)nc2ccccc12)c1ccccc1 (configuration not stated) | 100%
CC(Nc1nc(N2CCNCC2)nc2ccccc12)c1c(F)cccc1F (configuration not stated) | 88.9%
CC(Nc1nc(N2CCNCC2)nc2cc(Br)ccc12)c1ccccc1 (configuration not stated) | 97.1%
CC(Nc1nc(N2CCNCC2)nc2ccc(F)cc12)c1ccccc1 (configuration not stated) | 70.6%
CC(Nc1nc(N2CCNCC2)nc2ccccc12)c1ccccc1N (configuration not stated) | 70.2%
CC(Nc1nc(N2CCNCC2)nc2ccc(-c3ccccc3)cc12)c1ccccc1 (configuration not stated) | 100%

tested on: Vesicular stomatitis virus; assay: microbe, parasite or virus in culture; assay type: functional, organism-based; settings: not given

SMILES | IC50
CN1CCC[C@@H]1CCO[C@](C)(c1ccccc1)c1ccc(Cl)cc1.O=C(O)/C=C/C(=O)O [CLEMASTINE FUMARATE] | Not Active

same assay, conditions: Vesicular stomatitis virus; read-out: IC50

SMILES | IC50
CC(Nc1nc(N2CCOCC2)nc2ccccc12)c1ccccc1 (configuration not stated) | > 57.5 µM
C[C@H](Nc1nc(N2CCNCC2)nc2ccccc12)c1ccccc1 | > 57.5 µM
CC(Nc1nc(N2CCC(=O)CC2)nc2ccccc12)c1ccccc1 (configuration not stated) | > 57.5 µM
CC(Nc1nc(N2CCNCC2)nc2ccccc12)c1c(F)cccc1F (configuration not stated) | > 57.5 µM
CC(Nc1nc(N2CCNCC2)nc2cc(Br)ccc12)c1ccccc1 (configuration not stated) | 7.94 µM
CC(Nc1nc(N2CCNCC2)nc2ccc(F)cc12)c1ccccc1 (configuration not stated) | > 57.5 µM
CC(Nc1nc(N2CCNCC2)nc2ccccc12)c1ccccc1N (configuration not stated) | 39.8 µM
CC(Nc1nc(N2CCNCC2)nc2cc(-c3ccccc3)ccc12)c1ccccc1 (configuration not stated) | 35.5 µM
CC(Nc1nc(N2CCNCC2)nc2ccc(-c3ccccc3)cc12)c1ccccc1 (configuration not stated) | > 57.5 µM

tested on: SARS-CoV-2; assay: microbe, parasite or virus in culture; assay type: functional, organism-based, Vero E6; settings: Severe acute respiratory syndrome coronavirus 2, Vero C1008, 72 h

SMILES | IC50
CC(Nc1nc(N2CCOCC2)nc2ccccc12)c1ccccc1 (configuration not stated) | > 20 µM
CC(Nc1nc(N2CCC(=O)CC2)nc2ccccc12)c1ccccc1 (configuration not stated) | 13 µM
CC(Nc1nc(N2CCNCC2)nc2ccccc12)c1c(F)cccc1F (configuration not stated) | 14.1 µM
CC(Nc1nc(N2CCNCC2)nc2cc(Br)ccc12)c1ccccc1 (configuration not stated) | 7.94 µM
CC(Nc1nc(N2CCNCC2)nc2ccc(F)cc12)c1ccccc1 (configuration not stated) | 7.94 µM
CC(Nc1nc(N2CCNCC2)nc2ccccc12)c1ccccc1N (configuration not stated) | 12.6 µM
CC(Nc1nc(N2CCNCC2)nc2cc(-c3ccccc3)ccc12)c1ccccc1 (configuration not stated) | 4.47 µM
CC(Nc1nc(N2CCNCC2)nc2ccc(-c3ccccc3)cc12)c1ccccc1 (configuration not stated) | 7.94 µM

tested on: SARS-CoV-2; assay: not given; assay type: functional, Severe acute respiratory syndrome coronavirus 2, Vero E6; settings: time 72 hrs

SMILES | Efficacy
C[C@H](Nc1nc(N2CCNCC2)nc2ccccc12)c1ccccc1 | 87.8%
CC(Nc1nc(N2CCC(=O)CC2)nc2ccccc12)c1ccccc1 (configuration not stated) | 48.5%
CC(Nc1nc(N2CCNCC2)nc2ccccc12)c1c(F)cccc1F (configuration not stated) | 79.9%
CC(Nc1nc(N2CCNCC2)nc2cc(Br)ccc12)c1ccccc1 (configuration not stated) | 139.9%
CC(Nc1nc(N2CCNCC2)nc2ccc(F)cc12)c1ccccc1 (configuration not stated) | 101.3%
CC(Nc1nc(N2CCNCC2)nc2ccccc12)c1ccccc1N (configuration not stated) | 31.5%
CC(Nc1nc(N2CCNCC2)nc2cc(-c3ccccc3)ccc12)c1ccccc1 (configuration not stated) | 79%
CC(Nc1nc(N2CCNCC2)nc2ccc(-c3ccccc3)cc12)c1ccccc1 (configuration not stated) | 81.6%

tested on: HEK293; assay: Cytotoxicity against HEK293 cells expressing ACE2 cells assessed as reduction in cell viability; settings: Homo sapiens

SMILES | IC50
CC(Nc1nc(N2CCOCC2)nc2ccccc12)c1ccccc1 (configuration not stated) | > 57.5 µM
C[C@H](Nc1nc(N2CCNCC2)nc2ccccc12)c1ccccc1 | > 57.5 µM
CC(Nc1nc(N2CCC(=O)CC2)nc2ccccc12)c1ccccc1 (configuration not stated) | > 57.5 µM
CC(Nc1nc(N2CCNCC2)nc2ccccc12)c1c(F)cccc1F (configuration not stated) | > 57.5 µM
CC(Nc1nc(N2CCNCC2)nc2cc(Br)ccc12)c1ccccc1 (configuration not stated) | 39.8 µM
CC(Nc1nc(N2CCNCC2)nc2ccc(F)cc12)c1ccccc1 (configuration not stated) | > 57.5 µM
CC(Nc1nc(N2CCNCC2)nc2ccccc12)c1ccccc1N (configuration not stated) | > 57.5 µM
CC(Nc1nc(N2CCNCC2)nc2cc(-c3ccccc3)ccc12)c1ccccc1 (configuration not stated) | 39.8 µM
CC(Nc1nc(N2CCNCC2)nc2ccc(-c3ccccc3)cc12)c1ccccc1 (configuration not stated) | > 57.5 µM

tested on: not listed separately; assay: Cytotoxicity against HEK293 cells expressing ACE2 cells assessed as reduction in cell viability relative to control; settings: human

SMILES | Emax
CC(Nc1nc(N2CCOCC2)nc2ccccc12)c1ccccc1 (configuration not stated) | 25.1%
C[C@H](Nc1nc(N2CCNCC2)nc2ccccc12)c1ccccc1 | 0%
CC(Nc1nc(N2CCC(=O)CC2)nc2ccccc12)c1ccccc1 (configuration not stated) | 0%
CC(Nc1nc(N2CCNCC2)nc2ccccc12)c1c(F)cccc1F (configuration not stated) | 0%
CC(Nc1nc(N2CCNCC2)nc2cc(Br)ccc12)c1ccccc1 (configuration not stated) | 72.1%
CC(Nc1nc(N2CCNCC2)nc2ccc(F)cc12)c1ccccc1 (configuration not stated) | 0%
CC(Nc1nc(N2CCNCC2)nc2ccccc12)c1ccccc1N (configuration not stated) | 0%
CC(Nc1nc(N2CCNCC2)nc2cc(-c3ccccc3)ccc12)c1ccccc1 (configuration not stated) | 96.7%
CC(Nc1nc(N2CCNCC2)nc2ccc(-c3ccccc3)cc12)c1ccccc1 (configuration not stated) | 20.8%

tested on: SARS-CoV; assay: microbe, parasite or virus in culture; assay type: functional, organism-based; settings: Severe acute respiratory syndrome-related coronavirus, Huh-7, 24 h

SMILES | IC50
CC(Nc1nc(N2CCNCC2)nc2ccccc12)c1c(F)cccc1F (configuration not stated) | 1.65 µM

tested on: Vero C1008; assay: Cytotoxicity against African green monkey Vero E6 cells expressing ACE2 cells assessed as reduction in cell viability; settings: Chlorocebus sabaeus

SMILES | IC50
CC(Nc1nc(N2CCOCC2)nc2ccccc12)c1ccccc1 (configuration not stated) | > 20 µM
C[C@H](Nc1nc(N2CCNCC2)nc2ccccc12)c1ccccc1 | > 20 µM
CC(Nc1nc(N2CCNCC2)nc2cc(Br)ccc12)c1ccccc1 (configuration not stated) | 14.1 µM
CC(Nc1nc(N2CCNCC2)nc2ccc(F)cc12)c1ccccc1 (configuration not stated) | > 20 µM
CC(Nc1nc(N2CCNCC2)nc2ccccc12)c1ccccc1N (configuration not stated) | > 20 µM
CC(Nc1nc(N2CCNCC2)nc2cc(-c3ccccc3)ccc12)c1ccccc1 (configuration not stated) | 7.94 µM
CC(Nc1nc(N2CCNCC2)nc2ccc(-c3ccccc3)cc12)c1ccccc1 (configuration not stated) | 14.1 µM

tested on: not listed separately; assay: Cytotoxicity against African green monkey Vero E6 cells expressing ACE2 cells assessed as reduction in cell viability relative to control; settings: chlorocebus sabaeus

SMILES | Emax
CC(Nc1nc(N2CCOCC2)nc2ccccc12)c1ccccc1 (configuration not stated) | 23%
C[C@H](Nc1nc(N2CCNCC2)nc2ccccc12)c1ccccc1 | 0%
CC(Nc1nc(N2CCC(=O)CC2)nc2ccccc12)c1ccccc1 (configuration not stated) | 0%
CC(Nc1nc(N2CCNCC2)nc2ccccc12)c1c(F)cccc1F (configuration not stated) | 12.8%
CC(Nc1nc(N2CCNCC2)nc2cc(Br)ccc12)c1ccccc1 (configuration not stated) | 91.5%
CC(Nc1nc(N2CCNCC2)nc2ccc(F)cc12)c1ccccc1 (configuration not stated) | 11.8%
CC(Nc1nc(N2CCNCC2)nc2ccccc12)c1ccccc1N (configuration not stated) | 0%
CC(Nc1nc(N2CCNCC2)nc2cc(-c3ccccc3)ccc12)c1ccccc1 (configuration not stated) | 116%
CC(Nc1nc(N2CCNCC2)nc2ccc(-c3ccccc3)cc12)c1ccccc1 (configuration not stated) | 88.5%
